Reference: the supplement of paper PMC10307832

Legend:
Assay in all cases: relative viability (nuclei count vs DMSO), 5 days (fraction); higher = more cells survive
Vemurafenib + Crizotinib = compound: CCCS(=O)(=O)Nc1ccc(F)c(C(=O)c2c[nH]c3ncc(-c4ccc(Cl)cc4)cc23)c1F [Vemurafenib] + C[C@@H](Oc1cc(-c2cnn(C3CCNCC3)c2)cnc1N)c1c(Cl)ccc(F)c1Cl [Crizotinib] (partner 1 µM)
Procedure, shortened: (§1)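 Relative viability divides the nuclei count in treated wells by that in vehicle wells. Lung cancer cell lines were seeded in 1536-well plates, dosed by pin tool the next day, and fixed and stained after 5 days in one step with final 0.05% Triton X-100, 1% formaldehyde and 1 ug/ml Hoechst. Dosing was a single drug or a fixed anchor-drug dose plus five library-drug doses (not always all listed) in √10 steps, and values are medians of duplicate plates imaged at 4×.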

Alpelisib + Tozasertib = compound: Cc1nc(NC(=O)N2CCC[C@H]2C(N)=O)sc1-c1ccnc(C(C)(C)C(F)(F)F)c1 [Alpelisib] + Cc1cc(Nc2cc(N3CCN(C)CC3)nc(Sc3ccc(NC(=O)C4CC4)cc3)n2)n[nH]1 [Tozasertib] (partner 0.1 µM)
Procedure, shortened: as §1

Vemurafenib + Decitabine = compound: CCCS(=O)(=O)Nc1ccc(F)c(C(=O)c2c[nH]c3ncc(-c4ccc(Cl)cc4)cc23)c1F [Vemurafenib] + Nc1ncn([C@H]2C[C@H](O)[C@@H](CO)O2)c(=O)n1 [Decitabine] (partner 2 µM)
Procedure, shortened: as §1

Vemurafenib + OSI-027 = compound: CCCS(=O)(=O)Nc1ccc(F)c(C(=O)c2c[nH]c3ncc(-c4ccc(Cl)cc4)cc23)c1F [Vemurafenib] + COc1cccc2cc(-c3nc([C@H]4CC[C@H](C(=O)O)CC4)n4ncnc(N)c34)[nH]c12 [OSI-027] (partner 0.5 µM)
Procedure, shortened: as §1

| Cell Line | relative viability (Vemurafenib + Crizotinib; first compound 0.03162 µM) | relative viability (Vemurafenib + Crizotinib; first compound 0.1 µM) | relative viability (Vemurafenib + Crizotinib; first compound 0.3162 µM) | relative viability (Vemurafenib + Crizotinib; first compound 1 µM) | relative viability (Alpelisib + Tozasertib; first compound 0.04 µM) | relative viability (Alpelisib + Tozasertib; first compound 0.1265 µM) | relative viability (Alpelisib + Tozasertib; first compound 0.4 µM) | relative viability (Alpelisib + Tozasertib; first compound 1.265 µM) | relative viability (Alpelisib + Tozasertib; first compound 4 µM) | relative viability (Vemurafenib + Decitabine; first compound 0.03162 µM) | relative viability (Vemurafenib + Decitabine; first compound 0.1 µM) | relative viability (Vemurafenib + Decitabine; first compound 0.3162 µM) | relative viability (Vemurafenib + Decitabine; first compound 1 µM) | relative viability (Vemurafenib + OSI-027; first compound 0.03162 µM) | relative viability (Vemurafenib + OSI-027; first compound 0.1 µM) | relative viability (Vemurafenib + OSI-027; first compound 0.3162 µM) | relative viability (Vemurafenib + OSI-027; first compound 1 µM) |
| --- | --- | --- | --- | --- | --- | --- | --- | --- | --- | --- | --- | --- | --- | --- | --- | --- | --- |
| NCI-H520 | 0.659 | 0.755 | 0.765 | 0.703 | 0.449 | 0.461 | 0.462 | 0.351 | 0.309 | 0.463 | 0.482 | 0.479 | 0.519 | 0.236 | 0.282 | 0.327 | 0.214 |
| NCI-H596 | 0.97 | 1.01 | 0.992 | 1.09 | 0.859 | 0.893 | 0.86 | 0.56 | 0.374 | 0.974 | 0.959 | 0.922 | 0.864 | 0.686 | 0.723 | 0.577 | 0.492 |
| NCI-H647 | 1.03 | 0.963 | 0.884 | 0.713 | 0.416 | 0.322 | 0.419 | 0.102 | 0.26 | 0.478 | 0.396 | 0.38 | 0.444 | 0.636 | 0.629 | 0.477 | 0.564 |
| NCI-H650 | 0.705 | 0.72 | 0.418 | 0.581 | 0.705 | 0.758 | 0.798 | 0.54 | 0.573 | 0.311 | 0.334 | 0.308 | 0.33 | 0.459 | 0.473 |  | 0.421 |
| NCI-H661 | 0.819 | 1.07 |  | 0.949 | 0.369 | 0.362 | 0.348 | 0.337 | 0.323 | 0.521 | 0.495 | 0.567 | 0.625 | 0.673 | 0.559 | 0.658 | 0.688 |
| NCI-H727 | 0.793 | 0.623 | 1.2 | 0.954 | 0.749 | 0.584 | 0.641 | 0.575 | 0.459 | 0.688 | 0.762 | 0.964 | 0.866 | 0.571 | 0.561 | 1.08 | 0.526 |
| NCI-H838 | 0.761 | 0.783 |  | 0.928 | 0.279 | 0.25 | 0.277 | 0.215 | 0.247 | 0.467 | 0.485 | 0.54 | 0.598 | 0.367 | 0.404 |  | 0.436 |
| NCI-H1355 | 1 | 0.963 | 0.992 | 1.05 | 0.539 | 0.489 | 0.528 | 0.441 | 0.373 | 0.344 | 0.348 | 0.363 | 0.37 | 0.41 | 0.341 | 0.386 | 0.351 |
